Reference: patent US20140357713A1, “ANTIMICROBIAL COMPOUNDS AND METHODS OF USE” (NexMed Holdings, Inc., priority 2012, published 2014)
Structures can show the parent of a compound that is named as a salt.

How the values were obtained:
Test in all cases: MIC assay with different strains, Example 35
Assay type in all cases: cell-based
[1] = system: Burkholderia cepacia (ATCC 25416)
Protocol: (§1) The minimum inhibitory concentration (MIC) is used to determine the lowest concentration of a test product claiming antimicrobial effects that will inhibit growth of a microorganism. Each microbial suspension was adjusted approximately 10^7 to 10^8 colony forming units (CFU) per mL and labeled as the stock suspension. The stock suspension was further diluted to 1:200 in Mueller Hinton broth to obtain a test sample having a concentration of […]. The test sample was then tested for MIC as described in M202.R02. After incubation, each tube was examined for turbidity, which indicated growth or no growth. For the tubes where the product rendered the media turbid, an aliquot of the media was streaked onto agar plates to confirm growth or lack of growth.

[2] = system: Klebsiella oxytoca (ATCC 43165)
Protocol: as §1

[3] = system: Proteus mirabilis (ATCC 7002)
Protocol: as §1

[4] = system: Corynebacterium jeikeium (ATCC 43734)
Protocol: as §1

[5] = system: Candida albicans (ATCC 10231)
Protocol: as §1

[6] = system: Haemophilus influenza (ATCC 19418)
Protocol: as §1

[7] = system: Staphylococcus aureus (MRSA) (ATCC 33592)
Protocol: as §1

[8] = system: Enterococcus faecalis (ATCC 19433)
Protocol: as §1

[9] = system: Escherichia coli (ATCC 11229)
Protocol: as §1

[10] = system: Enterobacter cloacae (ATCC 13047)
Protocol: as §1

[11] = system: Micrococcus luteus (ATCC 4698)
Protocol: as §1

[12] = system: Staphylococcus haemolyticus (ATCC 29970)
Protocol: as §1

[13] = system: Staphylococcus hominis (ATCC 27844)
Protocol: as §1

[14] = system: Acinetobacter baumannii (ATCC 19606)
Protocol: as §1

[15] = system: Streptococcus pneumonia (ATCC 6303)
Protocol: as §1

CCCCCCCCCCCCOC(=O)C(C)N(C)C (centres unmarked) [Nex-05, Dodecyl 2-(dimethylamino)propanoate hydrochloride]
0.625%: MIC ([4]; Example 35) | MIC ([7]; Example 35) | MIC ([9]; Example 35) | MIC ([10]; Example 35) | MIC ([13]; Example 35)
0.313%: MIC ([5]; Example 35) | MIC ([11]; Example 35) | MIC ([12]; Example 35) | MIC ([14]; Example 35)
2.5%: MIC ([1]; Example 35)
0.156%: MIC ([15]; Example 35)
1.25%: MIC ([2]; Example 35) | MIC ([3]; Example 35) | MIC ([8]; Example 35)
Growth: Growth/no growth ([1]; Sample Concentration 0.039%) | Growth/no growth ([1]; Sample Concentration 0.078%) | Growth/no growth ([1]; Sample Concentration 0.156%) | Growth/no growth ([1]; Sample Concentration 0.313%) | Growth/no growth ([1]; Sample Concentration 0.625%) | Growth/no growth ([1]; Sample Concentration 1.25%) | Growth/no growth ([2]; Sample Concentration 0.039%) | Growth/no growth ([2]; Sample Concentration 0.078%) | Growth/no growth ([2]; Sample Concentration 0.156%) | Growth/no growth ([2]; Sample Concentration 0.313%) | Growth/no growth ([2]; Sample Concentration 0.625%) | Growth/no growth ([3]; Sample Concentration 0.039%) | Growth/no growth ([3]; Sample Concentration 0.078%) | Growth/no growth ([3]; Sample Concentration 0.156%) | Growth/no growth ([3]; Sample Concentration 0.313%) | Growth/no growth ([3]; Sample Concentration 0.625%) | Growth/no growth ([4]; Sample Concentration 0.039%) | Growth/no growth ([4]; Sample Concentration 0.078%) | Growth/no growth ([4]; Sample Concentration 0.156%) | Growth/no growth ([4]; Sample Concentration 0.313%) | Growth/no growth ([5]; Sample Concentration 0.039%) | Growth/no growth ([5]; Sample Concentration 0.078%) | Growth/no growth ([5]; Sample Concentration 0.156%) | Growth/no growth ([6]; Sample Concentration 0.039%) | Growth/no growth ([6]; Sample Concentration 0.078%) | Growth/no growth ([6]; Sample Concentration 0.156%) | Growth/no growth ([6]; Sample Concentration 0.313%) | Growth/no growth ([6]; Sample Concentration 0.625%) | Growth/no growth ([6]; Sample Concentration 1.25%) | Growth/no growth ([6]; Sample Concentration 2.5%) | Growth/no growth ([7]; Sample Concentration 0.039%) | Growth/no growth ([7]; Sample Concentration 0.078%) | Growth/no growth ([7]; Sample Concentration 0.156%) | Growth/no growth ([7]; Sample Concentration 0.313%) | Growth/no growth ([8]; Sample Concentration 0.039%) | Growth/no growth ([8]; Sample Concentration 0.078%) | Growth/no growth ([8]; Sample Concentration 0.156%) | Growth/no growth ([8]; Sample Concentration 0.313%) | Growth/no growth ([8]; Sample Concentration 0.625%) | Growth/no growth ([9]; Sample Concentration 0.039%) | Growth/no growth ([9]; Sample Concentration 0.078%) | Growth/no growth ([9]; Sample Concentration 0.156%) | Growth/no growth ([9]; Sample Concentration 0.313%) | Growth/no growth ([10]; Sample Concentration 0.039%) | Growth/no growth ([10]; Sample Concentration 0.078%) | Growth/no growth ([10]; Sample Concentration 0.156%) | Growth/no growth ([10]; Sample Concentration 0.313%) | Growth/no growth ([11]; Sample Concentration 0.039%) | Growth/no growth ([11]; Sample Concentration 0.078%) | Growth/no growth ([11]; Sample Concentration 0.156%) | Growth/no growth ([12]; Sample Concentration 0.039%) | Growth/no growth ([12]; Sample Concentration 0.078%) | Growth/no growth ([12]; Sample Concentration 0.156%) | Growth/no growth ([13]; Sample Concentration 0.039%) | Growth/no growth ([13]; Sample Concentration 0.078%) | Growth/no growth ([13]; Sample Concentration 0.156%) | Growth/no growth ([13]; Sample Concentration 0.313%) | Growth/no growth ([14]; Sample Concentration 0.039%) | Growth/no growth ([14]; Sample Concentration 0.078%) | Growth/no growth ([14]; Sample Concentration 0.156%) | Growth/no growth ([15]; Sample Concentration 0.039%) | Growth/no growth ([15]; Sample Concentration 0.078%)
5%: MIC ([6]; Example 35)
